Reference: patent US20060069132A1, “Azolecarboxamide herbicides” (priority 2004, published 2006)

Legend:
[1] = tested on: wild oat; assay: Test B postemergence herbicide test; format: in vivo, Avena fatua; conditions: postemergence, visual rating, scale 0 (no effect) to 100 (complete control)
Summary of the method: (§1)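 Formulated test chemicals went onto postemergence plants measuring 2 to 18 cm, at one to four leaves. For the paddy assay, species had reached two leaves. Scoring took place 13–15 days later by eye, relative to untreated plants, using 0 for no effect up to 100 for full control.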

[2] = tested on: barnyardgrass; assay: Test C flooded paddy test; format: in vivo, Echinochloa crus-galli
Summary of the method: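 Greenhouse test with a 12–14 day hold after application and visual comparison with controls. Emerged plants were 1- to 4-leaf stage (2–18 cm) when sprayed postemergence, and the paddy barnyardgrass was at 2 leaves under flooded conditions. 100 = complete control.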

[3] = tested on: pigweed; assay: Test B pre-/postemergence herbicide test; format: in vivo, Amaranthus retroflexus; conditions: for Pigweed plant response rating: postemergence, scale 0 (no effect) to 100 (complete control)
Summary of the method: (§2)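 Test chemicals in a non-phytotoxic solvent mixture with surfactant were applied preemergence to seeded species and postemergence to plants 2-18 cm tall (1- to 4-leaf stage); rice and barnyardgrass were also tested in a flooded paddy at the 2-leaf stage. Visual rating versus controls after 13-15 days in greenhouse, scale 0 (no effect) to 100 (complete control).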

[4] = tested on: ducksalad; assay: Test C flooded paddy test; format: in vivo, Heteranthera limosa
[5] = tested on: giant foxtail; assay: Test B pre-/postemergence herbicide test; format: in vivo, Setaria faberi; conditions: for Foxtail, Giant plant response rating: postemergence, scale 0 (no effect) to 100 (complete control)
Summary of the method: as §2

[6] = tested on: rice; assay: Test B pre-/postemergence herbicide test; format: in vivo, Oryza sativa; conditions: 0 = no effect, 100 = complete control, preemergence
Summary of the method: as §2

[7] = tested on: corn; assay: Test B pre-/postemergence herbicide test; format: in vivo, Zea mays; conditions: for Corn plant response rating: postemergence, scale 0 (no effect) to 100 (complete control)
Summary of the method: as §2

[8] = tested on: small flower umbrella sedge; assay: Test B flooded paddy test; format: in vivo, Cyperus difformis; conditions: 1000 g ai/ha, visual rating, scale 0 to 100 (0 no effect, 100 complete control), 13 to 15 days
Summary of the method: as §1

[9] = tested on: morningglory; assay: Test B pre-/postemergence herbicide test; format: in vivo, Ipomoea coccinea; conditions: for Morningglory plant response rating: postemergence, scale 0 (no effect) to 100 (complete control)
Summary of the method: (§3)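 Plants compared with untreated controls 13–15 days post-treatment and given a visual 0–100 injury score. Applications: preemergence to seeds; postemergence at 1- to 4-leaf (2–18 cm); paddy species flooded, 2-leaf stage. Vehicle non-phytotoxic, surfactant included.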

[10] = tested on: ducksalad; assay: Test B flooded paddy test; format: in vivo, Heteranthera limosa; conditions: 1000 g ai/ha, visual rating, scale 0 to 100 (0 no effect, 100 complete control), 13 to 15 days
Summary of the method: as §1

[11] = tested on: barnyardgrass; assay: Test B pre-/postemergence herbicide test; format: in vivo, Echinochloa crus-galli; conditions: for Barnyardgrass plant response rating: postemergence, scale 0 (no effect) to 100 (complete control)
Summary of the method: as §3

[12] = tested on: blackgrass; assay: Test B postemergence herbicide test; format: in vivo, Alopecurus myosuroides; conditions: postemergence, visual rating, scale 0 (no effect) to 100 (complete control)
Summary of the method: as §1

[13] = tested on: barnyardgrass; assay: Test B flooded paddy test; format: in vivo, Echinochloa crus-galli; conditions: 1000 g ai/ha, visual rating, scale 0 to 100 (0 no effect, 100 complete control), 13 to 15 days
Summary of the method: as §1

[14] = tested on: rice; assay: Test C flooded paddy test; format: in vivo, Oryza sativa
Summary of the method: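 Injury scored visually against controls on a 0 (no effect) to 100 (complete control) scale, 12 to 14 days after treatment in greenhouse. Flooded paddy plants treated at 2-leaf stage; postemergence plants at 1- to 4-leaf stage, 2 to 18 cm tall.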

[15] = tested on: large crabgrass; assay: Test B pre-/postemergence herbicide test; format: in vivo, Digitaria sanguinalis; conditions: for Crabgrass, Large plant response rating: postemergence, scale 0 (no effect) to 100 (complete control)
Summary of the method: as §2

[16] = tested on: cocklebur; assay: Test B pre-/postemergence herbicide test; format: in vivo, Xanthium strumarium; conditions: for Cocklebur plant response rating: postemergence, scale 0 (no effect) to 100 (complete control)
Summary of the method: as §3

[17] = tested on: Surinam grass; assay: Test B pre-/postemergence herbicide test; format: in vivo, Urochloa decumbens; conditions: for Surinam Grass plant response rating: postemergence, scale 0 (no effect) to 100 (complete control)
Summary of the method: as §2

[18] = tested on: smallflower umbrella sedge; assay: Test C flooded paddy test; format: in vivo, Cyperus difformis
[19] = tested on: velvetleaf; assay: Test B pre-/postemergence herbicide test; format: in vivo, Abutilon theophrasti; conditions: for Velvetleaf plant response rating: postemergence, scale 0 (no effect) to 100 (complete control)
Summary of the method: as §2

[20] = tested on: lambsquarters; assay: Test B pre-/postemergence herbicide test; format: in vivo, Chenopodium album; conditions: for Lambsquarters plant response rating: postemergence, visual rating, scale 0 (no effect) to 100 (complete control)
Summary of the method: as §2

[21] = tested on: rice; assay: Test B flooded paddy test; format: in vivo, Oryza sativa; conditions: 1000 g ai/ha, visual rating, scale 0 to 100 (0 no effect, 100 complete control), 13 to 15 days
Summary of the method: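 Paddy species grown to the 2-leaf stage under flooding; blackgrass sprayed postemergence at 2–18 cm (1- to 4-leaf stage). Plants kept in a greenhouse for 13 to 15 days, then visually rated against controls on 0 (no effect) to 100 (complete control).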

[22] = tested on: wheat; assay: Test B postemergence herbicide test; format: in vivo, Triticum aestivum; parameters: key to Wheat plant response rating: 0 = no effect, 100 = complete control; conditions: postemergence, visual rating, scale 0 (no effect) to 100 (complete control)
Summary of the method: as §1

[23] = 62 g ai/ha, scale 0 to 100 (0 no effect, 100 complete control)
[24] = 125 g ai/ha, scale 0 to 100 (0 no effect, 100 complete control)
[25] = 250 g ai/ha, scale of 0 to 100, 0 is no effect, 100 is complete control
[26] = 500 g ai/ha, visual rating after 12 to 14 days, scale 0 to 100 (0 no effect, 100 complete control)
[27] = 125 g ai/ha, 0 = no effect, 100 = complete control, preemergence
[28] = 500 g ai/ha, visual rating, 0 = no effect, 100 = complete control, preemergence

CCc1nc(C(C)(C)C)sc1C(=O)Nc1cc(C(=O)N(C)C)ccc1F [Compound 225]
90: Plant response rating, Barnyardgrass [2, 26] | Plant response rating, Rice ([6]; 500 g ai/ha, visual rating) | Sedge, Umbrella plant response rating [8] | Ducksalad plant response rating [10] | Plant response rating, Barnyardgrass [11, 28] | Barnyardgrass plant response rating [13] | Plant response rating, Surinam Grass [17, 28] | Rice plant response rating [21]
70: Pigweed plant response rating (0 to 100 scale) [3, 27] | Pigweed plant response rating ([3]; 500 g ai/ha, visual rating) | Plant response rating, Corn [7, 28] | Rice plant response rating [14, 24] | Lambsquarters plant response rating ([20]; 500 g ai/ha)
10: Ducksalad plant response rating [4, 23] | Foxtail, Giant plant response rating ([5]; 125 g ai/ha, visual rating) | Corn plant response rating ([7]; 125 g ai/ha, visual rating) | Plant response rating, Morningglory [9, 28] | Morningglory plant response rating ([9]; 125 g ai/ha, visual rating) | Barnyardgrass plant response rating ([11]; 125 g ai/ha, visual rating) | Crabgrass, Large plant response rating (0 to 100 scale) [15, 27] | Crabgrass, Large plant response rating ([15]; 125 g ai/ha, visual rating) | Surinam Grass plant response rating ([17]; 125 g ai/ha, visual rating) | Wheat plant response rating ([22]; 125 g ai/ha)
80: Barnyardgrass plant response rating [2, 25] | Plant response rating, Rice [14, 26] | Plant response rating, Sedge, Umbrella [18, 26] | Lambsquarters plant response rating (0 to 100 scale) [20, 27]
0: Oat, Wild plant response rating ([1]; 125 g ai/ha) | Morningglory plant response rating (0 to 100 scale) [9, 27] | Cocklebur plant response rating (0 to 100 scale) [16, 27]
60: Barnyardgrass plant response rating [2, 24] | Foxtail, Giant plant response rating (0 to 100 scale) [5, 27] | Rice plant response rating (0 to 100 scale) ([6]; 125 g ai/ha) | Barnyardgrass plant response rating (0 to 100 scale) [11, 27]
50: Lambsquarters plant response rating ([20]; 125 g ai/ha)
40: Pigweed plant response rating ([3]; 125 g ai/ha, visual rating) | Morningglory plant response rating ([9]; 500 g ai/ha, visual rating) | Blackgrass plant response rating ([12]; 500 g ai/ha) | Plant response rating, Cocklebur [16, 28] | Velvetleaf plant response rating ([19]; 500 g ai/ha, visual rating)
65: Sedge, Umbrella plant response rating [18, 23]
20: Foxtail, Giant plant response rating ([5]; 500 g ai/ha, visual rating) | Corn plant response rating ([7]; 500 g ai/ha, visual rating) | Blackgrass plant response rating ([12]; 125 g ai/ha) | Crabgrass, Large plant response rating ([15]; 500 g ai/ha, visual rating) | Cocklebur plant response rating ([16]; 125 g ai/ha, visual rating) | Cocklebur plant response rating ([16]; 500 g ai/ha, visual rating) | Surinam Grass plant response rating (0 to 100 scale) [17, 27] | Surinam Grass plant response rating ([17]; 500 g ai/ha, visual rating)
100: Plant response rating, Pigweed [3, 28] | Plant response rating, Foxtail, Giant [5, 28] | Plant response rating, Crabgrass, Large [15, 28] | Plant response rating, Velvetleaf [19, 28]
85: Ducksalad plant response rating [4, 25] | Plant response rating, Ducksalad [4, 26]
55: Rice plant response rating [14, 23]
75: Ducksalad plant response rating [4, 24] | Rice plant response rating [14, 25] | Sedge, Umbrella plant response rating [18, 24] | Sedge, Umbrella plant response rating [18, 25]
35: Barnyardgrass plant response rating [2, 23]
30: Oat, Wild plant response rating ([1]; 500 g ai/ha) | Corn plant response rating (0 to 100 scale) [7, 27] | Barnyardgrass plant response rating ([11]; 500 g ai/ha, visual rating) | Velvetleaf plant response rating (0 to 100 scale) [19, 27] | Velvetleaf plant response rating ([19]; 125 g ai/ha, visual rating) | Wheat plant response rating ([22]; 500 g ai/ha)
